Measured values: patent US20260174769A1, “MACROCYCLIC COMPOUNDS AND METHODS OF USE” (AMGEN INC., priority 2022, published 2026)
pIC50: −log10 of the molar value. Counter-ions that a name gives are not always drawn.

Target: His-tagged KRAS G12D protein (Homo sapiens, UniProt P01116, G12D)
Assay: KRAS G12D TR-FRET Assay
Format: binding
Details: TR-FRET binding
Protocol: The His-tagged KRAS G12D protein (Amgen) was diluted to 20 nM in Assay Buffer (20 mM HEPES, pH 7.4, 10 mM MgCl2, 50 mM NaCl, 0.1% BSA, 0.01% Tween-20, 10 μM GDP) and 2 μL was added to the appropriate wells of the 384-well plate. The plate was incubated for 30 minutes at room temperature. Biotinylated KRPep-2d substrate (Amgen) was diluted to 20 nM in Assay Buffer and 2 μL was added to all wells and incubated for 1 hour at room temperature. Detection Reagent (0.4 nM LANCE Eu-W1024 Anti-6×His (Perkin Elmer AD0401), 5 nM streptavidin-d2 (Cisbio 610SADLA)) was prepared in Assay Buffer, then 4 μL was added to the plate and incubated for 1 hour at room temperature.

His-tagged KRAS G12D protein, sequence (P01116 1-188 isoform P01116-2 G12D): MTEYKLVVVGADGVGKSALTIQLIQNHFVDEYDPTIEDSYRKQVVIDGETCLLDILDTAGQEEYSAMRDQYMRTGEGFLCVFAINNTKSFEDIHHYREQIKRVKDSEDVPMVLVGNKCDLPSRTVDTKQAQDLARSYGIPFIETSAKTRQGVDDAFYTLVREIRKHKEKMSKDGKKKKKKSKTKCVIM

pIC50	SMILES
8.30	C[C@@]12CCCCN(C1)c1nc(OC[C@@]34CCCN3C[C@H](F)C4)nc3c(F)c(ncc13)-c1c(c(Cl)cc3[nH]ncc13)CCCCC(=O)N2 (single isomer, unassigned) [Example 166]
7.77	O=C1OC/C=C/c2c(Cl)cc3[nH]ncc3c2-c2ncc3c(nc(OC[C@@]45CCCN4C[C@H](F)C5)nc3c2F)N2CCC[C@H](C2)O1 (single isomer, unassigned) [Example 116]
6.54	O=C1OCCCc2c(Cl)cc3[nH]ncc3c2-c2ncc3c(nc(OC[C@@]45CCCN4C[C@H](F)C5)nc3c2F)N2CC[C@@H]3CCN1[C@@H]3C2 (single isomer, unassigned) [Example 176]
7.77	C[C@@H](Oc1nc2c3cnc(c(F)c3n1)-c1c(c(Cl)cc3[nH]ncc13)CCCOC(=O)O[C@@H]1COCCN2C1)[C@@H]1CCCN1C (single isomer, unassigned) [Example 203]
8.10	Cc1cc2[nH]ncc2c2c1CCCOC(=O)O[C@]1(C)COCCN(C1)c1nc(OC[C@@H]3CCCN3C)nc3c(F)c-2ncc13 (single isomer, unassigned) [Example 183]
5.55	O=C1CCCCc2c(Cl)cccc2-c2ncc3c(nc(OC[C@@]45CCCN4C[C@H](F)C5)nc3c2F)N2CC[C@@H]3CCN1[C@@H]3C2 (single isomer, unassigned) [Example 163]
4.90	C[C@]12CCCCN(C1)c1nc(OC[C@@]34CCCN3C[C@H](F)C4)nc3c(F)c(ncc13)-c1c(c(Cl)cc3[nH]ncc13)CCCCC(=O)N2 (single isomer, unassigned) [Example 165]
7.85	C[C@@]12CCCN(C1)c1nc(OC[C@@]34CCCN3C[C@H](F)C4)nc3c(F)c(ncc13)-c1cccc3ccc(F)c(c13)CCOC(=O)N2 (single isomer, unassigned) [Example 77]
7.09	CN1C(=O)OCCCc2c(Cl)cc3[nH]ncc3c2-c2ncc3c(nc(OC[C@@]45CCCN4C[C@H](F)C5)nc3c2F)N2C[C@@H](O)C[C@@H]1C2 (single isomer, unassigned) [Example 286]
8.40	O=C1OCCCc2c(Cl)cc3[nH]ncc3c2-c2ncc3c(nc(OC[C@@]45CCCN4C[C@H](F)C5)nc3c2F)N2CCCC[C@](CF)(C2)O1 (single isomer, unassigned) [Example 340]
8.52	O=C1OCCCc2c(Cl)cc3[nH]ncc3c2-c2ncc3c(nc(OC[C@@]45CCCN4C[C@H](F)C5)nc3c2F)N2CC[C@H]3CCN1[C@H]3C2 (single isomer, unassigned) [Example 177]
8.15	CN1CCC[C@H]1COc1nc2c3cnc(c(F)c3n1)-c1c(c(Cl)cc3[nH]ncc13)CCCOC(=O)O[C@]1(CF)COCCN2C1 (single isomer, unassigned) [Example 338]
7.66	Cc1cc2[nH]ncc2c2c1C[C@@H](C)COC(=O)O[C@@H]1CCCN(C1)c1nc(OC[C@@]34CCCN3C[C@H](F)C4)nc3c(F)c-2ncc13 (single isomer, unassigned) [Example 214]
5.49	CN(C)CC1(COc2nc3c4cnc(c(F)c4n2)-c2c(c(Cl)cc4[nH]ncc24)CCCOC(=O)O[C@@]2(C)COCCN3C2)CC1 (single isomer, unassigned) [Example 332]
8.30	O=C1N[C@@H]2CCCCN(C2)c2nc(OC[C@@]34CCCN3C[C@H](F)C4)nc3c(F)c(ncc23)-c2c3c(cc4[nH]ncc24)CC[C@H]3CCO1 (single isomer, unassigned) [Example 301]
8.15	Fc1c2ncc3c(nc(OC[C@@]45CCCN4C[C@H](F)C5)nc13)N1CCOC[C@H](C1)c1cnn(n1)CCCc1c(Cl)cc3[nH]ncc3c1-2 (single isomer, unassigned) [Example 298]
7.10	O=C1CCCCc2c(Cl)cc3[nH]ncc3c2-c2ncc3c(nc(OC[C@@]45CCCN4C[C@H](F)C5)nc3c2F)N2CC[C@@H]3CCN1[C@@H]3C2 (single isomer, unassigned) [Example 61]

pIC50	SMILES
8.05	C[C@@H]1CCOC[C@H]2CN(CCO2)c2nc(OC[C@@]34CCCN3C[C@H](F)C4)nc3c(F)c(ncc23)-c2c(c(Cl)cc3[nH]ncc23)C1 (single isomer, unassigned) [Example 253]
8.40	Cc1cc2[nH]ncc2c2c1CCCOC(=O)N[C@]1(C)CCCCN(C1)c1nc(OC[C@@]34CCCN3C[C@H](F)C4)nc3c(F)c-2ncc13 (single isomer, unassigned) [Example 292]
8.10	Cc1cc2[nH]ncc2c2c1/C=C\COC(=O)O[C@@H]1CCCN(C1)c1nc(OC[C@@]34CCCN3C[C@H](F)C4)nc3c(F)c-2ncc13 (single isomer, unassigned) [Example 123]
8.15	C[C@@]12CCCN(C1)c1nc(OC[C@@]34CCCN3C[C@H](F)C4)nc3c(F)c(ncc13)-c1cc(O)cc3c1[C@@H](CCCC(=O)N2)CCC3 (single isomer, unassigned) [Example 27, 2,2,2-trifluoroacetate salt]
8.22	Fc1cc2[nH]ncc2c2c1CCCCOC[C@@H]1CCCCN(C1)c1nc(OC[C@@]34CCCN3C[C@H](F)C4)nc3c(F)c-2ncc13 (single isomer, unassigned) [Example 239]
5.65	Fc1c2ncc3c(nc(OC[C@@]45CCCN4C[C@H](F)C5)nc13)N1CCCC[C@@H](C1)c1cnn(n1)CCCc1c(Cl)cc3[nH]ncc3c1-2 (single isomer, unassigned) [Example 295]
7.57	Cc1cc2[nH]ncc2c2c1CCCCO[C@@H](C)[C@@H]1CN(CCO1)c1nc(OC[C@@]34CCCN3C[C@H](F)C4)nc3c(F)c-2ncc13 (single isomer, unassigned) [Example 244]
8.40	Fc1c2ncc3c(nc(OC[C@@]45CCCN4C[C@H](F)C5)nc13)N1CCOC[C@@H](COCCCCc3c(Cl)cc4[nH]ncc4c3-2)C1 (single isomer, unassigned) [Example 137]
8.30	O=C1OCCCc2c(Cl)cc3[nH]ncc3c2-c2ncc3c(nc(OC[C@@]45CCCN4C[C@H](F)C5)nc3c2F)N2CCOC[C@](CF)(C2)O1 (single isomer, unassigned) [Example 311]
7.47	C[C@H](Oc1nc2c3cnc(c(F)c3n1)-c1c(c(Cl)cc3[nH]ncc13)CCCOC(=O)O[C@@H]1COCCN2C1)[C@@H]1CCCN1C (single isomer, unassigned) [Example 204]
7.00	Cc1cc2[nH]ncc2c2c1CCOC(=O)O[C@H]1C[C@@]3(CCCN(C3)c3nc(OC[C@@H]4CCCN4C)nc4c(F)c-2ncc34)C1 (single isomer, unassigned) [Example 325]
6.33	[2H]C([2H])([2H])[C@]12COCCN(C1)c1nc(OC[C@@]34CCCN3C[C@H](F)C4)nc3c(F)c(ncc13)-c1c(c(C)cc3[nH]ncc13)CCCOC(=O)O2 (single isomer, unassigned) [Example 351]
4.30	Cc1cc2[nH]ncc2c2c1CCCOC(=O)N[C@@]1(C)CCCCN(C1)c1nc(OC[C@@]34CCCN3C[C@H](F)C4)nc3c(F)c-2ncc13 (single isomer, unassigned) [Example 293]
8.30	CN(C)CC1(COc2nc3c4cnc(c(F)c4n2)-c2c(c(Cl)cc4[nH]ncc24)CCCOC(=O)O[C@]2(C)COCCN3C2)CC1 (single isomer, unassigned) [Example 331]
8.30	O=C1OC/C=C\c2c(Cl)cc3[nH]ncc3c2-c2ncc3c(nc(OC[C@@]45CCCN4C[C@H](F)C5)nc3c2F)N2CCC[C@H](C2)O1 (single isomer, unassigned) [Example 122]
8.52	C[C@@]12COCCN(C1)c1nc(OC[C@@]34CCCN3C[C@H](F)C4)nc3c(F)c(ncc13)-c1c3c(cc4[nH]ncc14)CC[C@H]3CCOC(=O)O2 (single isomer, unassigned) [Example 365]
8.52	O=C1CCCCc2c(Cl)cc3[nH]ncc3c2-c2ncc3c(nc(OC[C@@]45CCCN4C[C@H](F)C5)nc3c2F)N2CC[C@H]3CCN1[C@H]3C2 (single isomer, unassigned) [Example 62]

Same assay, conditions: TR-FRET; read-out: KRAS G12D Binding IC50

pIC50	SMILES
5.43	Fc1c2ncc3c(nc(OC[C@@]45CCCN4C[C@H](F)C5)nc13)N1CCC[C@@H](C1)c1cnc(o1)CCCc1c(Cl)cc3[nH]ncc3c1-2 (single isomer, unassigned) [Example 386]
8.40	Fc1c2ncc3c(nc(OC[C@@]45CCCN4C[C@H](F)C5)nc13)N1CCCC[C@](F)(COCCCCc3c(Cl)cc4[nH]ncc4c3-2)C1 (single isomer, unassigned) [Example 398]
5.74	Fc1c2ncc3c(nc(OC[C@@]45CCCN4C[C@H](F)C5)nc13)N1CCO[C@@H](COCC[C@H]3C[C@H]3c3c(Cl)cc4[nH]ncc4c3-2)C1 (single isomer, unassigned) [Example 393]
7.57	Fc1c2ncc3c(nc(OC[C@@]45CCCN4C[C@H](F)C5)nc13)N1CCOC[C@H](Cc3ncc(o3)CCc3c(Cl)cc4[nH]ncc4c3-2)C1 (single isomer, unassigned) [Example 375]
8.30	Fc1c2ncc3c(nc(OC[C@@]45CCCN4C[C@H](F)C5)nc13)N1CCCCC(C1)c1noc(n1)CCCc1c(Cl)cc3[nH]ncc3c1-2 (mixture of isomers) [Example 382, (1RS)-10-chloro-33-fluoro-24-(((2R,7a.S)-2-fluorotetrahydro-1H-pyrrolo[1,2-α]pyrrol-7a(5H)-yl)methoxy)-4-oxa-3,13,14,19,23,25,27,34-octaazaheptacyclo[25.4.1.1~2,5~.1~18,22~.0~9,17~0~12,16~.0~21,26~]tetratriaconta-2,5(34),9,11,14,16,18(33),19,21,23,25-undecaene]
8.40	Fc1c2ncc3c(nc(OC[C@@]45CCCN4C[C@H](F)C5)nc13)N1CCCC[C@@](F)(COCCCCc3c(Cl)cc4[nH]ncc4c3-2)C1 (single isomer, unassigned) [Example 399]
